From PMC9990147 (Nature, 2021)
Positions count from the first letter of the chain named.

Legend:
human PCFT (SLC46A1) = biological target: T1, human PCFT (SLC46A1) (Homo sapiens, UniProt Q96NT5); assay: cell-based 3H-folic acid uptake at pH […] and […]
T1 sequence (Q96NT5 1-459): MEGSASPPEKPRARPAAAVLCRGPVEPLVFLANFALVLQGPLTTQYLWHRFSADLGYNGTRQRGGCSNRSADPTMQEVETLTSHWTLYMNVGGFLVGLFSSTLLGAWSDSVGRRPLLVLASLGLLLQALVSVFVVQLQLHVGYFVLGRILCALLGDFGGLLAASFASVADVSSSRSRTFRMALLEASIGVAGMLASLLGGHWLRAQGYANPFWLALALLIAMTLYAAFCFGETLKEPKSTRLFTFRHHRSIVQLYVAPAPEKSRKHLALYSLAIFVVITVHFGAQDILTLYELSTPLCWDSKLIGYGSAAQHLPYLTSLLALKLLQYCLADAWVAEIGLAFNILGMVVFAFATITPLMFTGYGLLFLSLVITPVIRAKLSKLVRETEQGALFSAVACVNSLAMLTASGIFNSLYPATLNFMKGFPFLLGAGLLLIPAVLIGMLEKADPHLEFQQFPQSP

[1] = biological target: T2, PCFT (proton-coupled folate transporter, SLC46A1) (Gallus gallus, UniProt F1NJ67); assay: cryo-EM structure at […] Å; format: cell-based
T2 sequence (F1NJ67 1-473): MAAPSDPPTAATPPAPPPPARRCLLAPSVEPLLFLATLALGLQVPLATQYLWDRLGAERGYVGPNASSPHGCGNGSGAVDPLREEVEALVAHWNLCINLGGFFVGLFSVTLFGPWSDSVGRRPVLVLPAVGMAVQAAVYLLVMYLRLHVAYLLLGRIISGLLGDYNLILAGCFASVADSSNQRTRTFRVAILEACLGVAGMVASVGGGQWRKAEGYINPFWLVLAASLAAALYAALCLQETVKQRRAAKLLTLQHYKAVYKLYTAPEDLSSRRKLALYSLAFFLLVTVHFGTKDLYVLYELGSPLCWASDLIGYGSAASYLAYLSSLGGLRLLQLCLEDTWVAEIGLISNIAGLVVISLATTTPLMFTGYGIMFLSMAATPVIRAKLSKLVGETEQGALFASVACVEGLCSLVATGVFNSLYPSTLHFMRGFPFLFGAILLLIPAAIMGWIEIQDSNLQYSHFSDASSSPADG

[2] = biological target: T3, biotinylated chicken PCFT with C-terminal Avi-tag (Gallus gallus (UniProt E6Y8U5 sequence), biotin on the C-terminal Avi-tag); assay: BLI
T3 chain: T2 sequence (F1NJ67 1-473) with L25P, G392S

Nc1nc(=O)c2nc(CNc3ccc(C(=O)N[C@@H](CCC(=O)O)C(=O)O)cc3)cnc2[nH]1 [FA, folic acid]
cell-based 3H-folic acid uptake at pH 5.5 and 7.5 (human PCFT (SLC46A1)): The human and chicken homologues transport similar amounts of folic acid to each other and do so only at acidic pH

Nc1nc2[nH]cc(CCc3ccc(C(=O)N[C@@H](CCC(=O)O)C(=O)O)cc3)c2c(=O)[nH]1 [PMX, pemetrexed]
IC50 [1]: 0.9 µM

B1: PCFT nanobody (high-affinity inhibitory nanobody from a naive llama library) (VHH)
VHH: QVQLVESGGGLVQPGGSLRLSCAASGFTFSRYWMYWVRQAPGKGPEWLSHMNPSGSDIKYTDSVKGRFTISRDNAKNTLYLQMNSLKPDDTAVYYCVADRRALGSPEYWGQGTQVTVSS
Kd [2]: 0.008 µM
